According to US6902881B2, “Compounds and methods for regulating cell differentiation” (priority 2000, dated 2005):

Legend:
[1] = test system: UV-irradiated Xenopus laevis stage 1 embryos; experiment: Rescue of dorsal axis formation in UV-irradiated embryos, scored by dorsal anterior index (DAI); format: in vivo
Method: (§1) Several hundred spawned eggs were fertilized in vitro and incubated at 16 to 18° C. […] The vegetal surfaces of some of these embryos were irradiated with one or the other sources of UV light within 10 min of fertilization for 20-30 min. […] The embryos were not disturbed, touched or tipped from the moment of fertilization, during UV irradiation or for the duration of development. […] A score of 5 defines a normal dorsal axis, 4 a microcephalic, 3 a cyclopic, 2 an anoptic, 1 an acephalic and 0 an adorsal embryo.
The biological activities of biliverdin and its derivatives were tested by adding each of them to the incubation solution of embryos after the termination of the UV light exposure to either 254 or 366 nm UV light and at selected time periods between T ƒfm=0.4-2.5. Final concentrations of biliverdin ranged from 0.05 to 5 μM in less than 1% ethanol. […] An extinction coefficient of 51,000 was utilized to calculate their concentrations. All petri dishes were covered with aluminum foil to avoid light exposure. The extent of dorsal axis formation was analyzed by the morphological criteria described above.
(§2) Stage 1 embryos were exposed to UV-light source emitting at 366 nm (Mineralight UVSL-58, Ultraviolet Products, Inc., San Gabriel, Calif.) as described and then incubated in the presence of pure candidate DCD or commercially available biliverdin (Sigma-Aldrich, St. Louis, Mo.) at final concentrations from 0.05 to 1.2 μM in less than 1% ethanol. The concentrations were calculated using a molar extinction coefficient of 51,000. One group of embryos was not exposed to UV light but was incubated in the presence of 0.5 μM of candidate DCD.

[2] = test system: control fertilized oocytes unexposed to UV light; experiment: Development of control embryos unexposed to UV light incubated with the compounds (dysmorphogen test); details: control fertilized oocytes unexposed to UV light incubated with the compound
Method: as §1
The biological activities of biliverdin and its derivatives were tested by adding each of them to the incubation solution of embryos after the termination of the UV light exposure to either 254 or 366 nm UV light and at selected time periods between T ƒfm=0.4-2.5. Final concentrations of biliverdin ranged from 0.05 to 5 μM in less than 1% ethanol. […] The extent of dorsal axis formation was analyzed by the morphological criteria described above.
as §2, with “One group of embryos was not exposed to UV light but was incubated in the presence of 0.5 μM of candidate DCD.” left out

[3] = test system: HT29 colon cancer cells; experiment: Cellular proliferation and viability of HT29 colon cancer cells; format: cell-based, human
Method: Cell Culture Conditions. Human HT 29 colon cancer cells were purchased from the American Type Culture Collection. Cells were maintained in Dulbecco's Modified Eagle's Medium (DME) supplemented with 5% heat-inactivated fetal bovine serum, 2 mM glutamine, and antibiotics (DME/5%). All cell lines were incubated in a humidified 5% CO2/air environment. They were maintained at 37° C. in 5% CO2 covered in aluminum foil to prevent exposure to the light. A total of 1×10^6 cells were incubated per flask and allowed to attach overnight. Media was changed every third day. Cell counts were performed on a Coulter Counter following detachment of cells by standard trypsinization procedures. […] The period of exposure was followed by incubation in the absence of biliverdine. Cell numbers were monitored until proliferation resumed. The production of CEA and alkaline phosphatase was measured as described below.
The HT29 colon cancer cells were incubated with different concentrations of biliverdine and their response studied to identify the concentration ranges required to elicit a biological and/or a toxicological response (Table III).

[4] = test system: p 21 content in HT 29 Colon Cancer Cells; experiment: p21 content in HT 29 colon cancer cells; format: cell-based, human; details: HT 29 low-density culture
Method: Biliverdin IXα exerts powerful effects on human colon cancer HT 29 cells. Normally, the contents of p21 and p27, known inhibitors of the CDK system, increase as control HT 29 cells become confluent and reach stationary phase. […] In contrast, addition of 4×10^−7 M biliverdin to the incubation medium of the low-density cultures, results in persistence and/or progressive increase in p21 and p27 content starting as early as 16 hs. This effect on p21 induction is dependent on one or both of the propionic acid side chains of biliverdin.

[5] = test system: Liposarcoma cells; experiment: Cellular triacyl glycerol (TAG) content, liposarcoma; format: cell-based, human; details: insulin 5 μg/ml, pituitary extract 20 μg/ml, biliverdin 4 × 10^−7 M where present
Method: Expression of differentiation markers. Carcinoembryogenic antigen in cell supernatants collected each three days was assayed by standard ELISA determinations using an IMX assay for quantitative measurement of the antigen. Cellular triacyl glycerol content was measured spectrophotometrically by enzymatic hydrolysis and analysis of the amount of glycerol released using a standard assay, Triglyceride (INT) 10 (Sigma Diagnostics). Cellular alkaline phosphatase activity was determined by measuring the fluorescence change induced by the hydrolysis of 4-methylumbelliferylphosphate. The fluorescence is detected at 450 nm with an excitation of 365 nm, using a Jobin Ivon-Spex Fluoro Max-2 fluorimeter. The alkaline phosphatase activity detected was expressed in units of μmol/mg protein/min.
Liposarcoma cells also accumulate triacyl glycerol in response to biliverdin. The extent of the accumulation is determined by the composition of the incubation media. Triacyl glycerol is induced in liposarcoma cells by insulin alone. The amount increases when bovine pituitary extract is added with the insulin. The highest production is achieved, however, when biliverdin is combined with insulin plus bovine pituitary extract.

[6] = test system: Normal Fibroblast (3T3-L1 fibroblasts); experiment: Cellular triacyl glycerol (TAG) content, normal fibroblast; format: cell-based
Method: Expression of differentiation markers. Carcinoembryogenic antigen in cell supernatants collected each three days was assayed by standard ELISA determinations using an IMX assay for quantitative measurement of the antigen. Cellular triacyl glycerol content was measured spectrophotometrically by enzymatic hydrolysis and analysis of the amount of glycerol released using a standard assay, Triglyceride (INT) 10 (Sigma Diagnostics). […] The fluorescence is detected at 450 nm with an excitation of 365 nm, using a Jobin Ivon-Spex Fluoro Max-2 fluorimeter. The alkaline phosphatase activity detected was expressed in units of μmol/mg protein/min. These compounds also affect the timing for the fat accumulation. After 9 days of incubation with insulin and bovine pituitary extract, but without biliverdin, the fat droplets in the cells are small and scattered diffusely throughout the cell. These globules continue to enlarge to fill most of the cytoplasmic space by day 14. In contrast, by day 7 the cells incubated in the presence of biliverdin already contain large, grouped and prominent droplets. While the triacyl glycerol content increases in both HT 29 and liposarcoma cells, the fat droplets in HT 29 cells are smaller than those that fill the cytoplasm of the liposarcoma cells. 3T3-L1 fibroblasts differentiate into adipocytes in the presence of insulin (Table VII). In the absence of biliverdin, this hormone increases the triacylglycerol content of 3T3-L1 fibroblasts by 3-fold relative to control. When biliverdin is added, a progressively greater content of triacyl glycerol is achieved at day 9. The increase is dependent on the biliverdin concentration. At the highest concentration used, 4×10^−7 M, there is a 5.8-fold increase of triacyl glycerol content over that of the undifferentiated fibroblasts (Table VII). This almost doubles the amount in the cells incubated with differentiation medium alone and is nearly as high as observed with troglitazone. At a lower biliverdin concentration, 10^−8 M, there is a 3.5-fold increase compared to control values. Remarkably, the amounts of biliverdin required to achieve the effects on proliferation, cell cycle and differentiation marker up-regulation, i.e. 10^−7-10^−06 M, are the same as those needed to re-establish the capacity of embryos depleted of the tetrapyrrole by treatment with UV-light to form a dorsal axis.

| Compound | recovery of dorsal axial structures ([1]; 254 or 366 nm UV-irradiated embryos, μM amounts) | recovery of dorsal axis formation ([1]; UV-irradiated embryos, 3.7 μM) | average DAI of control embryos [2] | activity on human colon adenocarcinoma cells (p21/p27, G1, proliferation arrest, differentiation markers) [3] | p21 content in words [4] | % Change of TAG [5] | TAG ([5]; control 12.3) | increase of triacylglycerol content relative to control ([6]; 3T3-L1 fibroblasts, insulin in the absence of biliverdin) | % Change of TAG ([6]; Normal Fibroblast, insulin 5 μg/ml, biliverdin 4 × 10^−7 M where present) | TAG ([6]; Normal Fibroblast, insulin 5 μg/ml, biliverdin 4 × 10^−7 M where present, control 9.3) |
| --- | --- | --- | --- | --- | --- | --- | --- | --- | --- | --- |
| C=CC1=C(C)/C(=C/C2=NC(=C\c3[nH]c(/C=C4\NC(=O)C(C)=C4C=C)c(C)c3CCC(=O)OC)/C(CCC(=O)OC)=C2C)NC1=O.Cl [biliverdin dimethyl ester hydrochloride, reference compound] | does not induce recovery | no recovery | 5 | inactive | nearly undetectable |  |  |  |  |  |
| Insulin: hormone; differentiates 3T3-L1 fibroblasts into adipocytes |  |  |  |  |  | 139% | 17.1 mg/10^6 cells | 3 fold | 304% | 28.3 mg/10^6 cells |
